# Assay results as given in article PMC9007292, “8‐Prenylnaringenin tissue distribution and pharmacokinetics in mice and its binding to human serum albumin and cellular uptake in human embryonic kidney cells” (Food Science & Nutrition, 2022).
# Where “and” joins values, the source holds several entries; their conditions need not be identical. Equal values may be shown once.
# Legend:
# site II of HSA = site II of HSA (Homo sapiens, UniProt P02768); test: Fluorescence competitive binding assay with site‐selective probe BD140; settings: for Competitive inhibition rate of the probe binding, Site II: BD140 probe, 100 µM, n = 3, mean ± SE; for inhibition at 100 µM: human, defatted human serum albumin (HSA) in phosphate buffer, pH 7.4, probe BD140
# site II of HSA, sequence (P02768 25-609): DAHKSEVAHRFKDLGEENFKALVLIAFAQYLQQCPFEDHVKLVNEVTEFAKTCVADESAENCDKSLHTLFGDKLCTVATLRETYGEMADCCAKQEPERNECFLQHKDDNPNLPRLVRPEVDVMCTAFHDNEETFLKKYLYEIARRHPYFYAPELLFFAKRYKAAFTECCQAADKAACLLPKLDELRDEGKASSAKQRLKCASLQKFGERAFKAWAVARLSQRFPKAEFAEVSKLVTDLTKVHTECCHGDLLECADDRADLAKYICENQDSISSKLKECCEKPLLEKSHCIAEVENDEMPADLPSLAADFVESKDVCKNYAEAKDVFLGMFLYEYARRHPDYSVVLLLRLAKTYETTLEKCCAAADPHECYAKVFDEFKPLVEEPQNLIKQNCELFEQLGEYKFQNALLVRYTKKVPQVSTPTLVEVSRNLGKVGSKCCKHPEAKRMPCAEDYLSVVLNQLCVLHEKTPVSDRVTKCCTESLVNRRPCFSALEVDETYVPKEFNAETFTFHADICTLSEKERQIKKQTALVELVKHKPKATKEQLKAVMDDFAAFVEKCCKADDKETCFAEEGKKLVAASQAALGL
# Protocol: (§1) A fluorescent dye cocktail containing 0.33 mM BD140 and 1 mM DNSA was prepared in DMSO. Defatted HSA (A3782‐1G; Sigma‐Aldrich) was dissolved in phosphate buffer (pH 7.4) at a concentration of 0.67 mg/ml. Each flavonoid was dissolved in DMSO (stock solution) at 100 times the test concentration. Subsequently, 637 µl HSA solution, 6.5 µl fluorescent dye cocktail, and 6.5 µl flavonoid were mixed and divided into three wells on a 96‐well multi‐black plate. The final concentration of flavonoids was 1–100 μM. […] The HSA‐binding affinities of the flavonoids were evaluated by measuring the competitive inhibition rate of the probes binding to flavonoids according to Equation (1): (1) Flavonoidinhibitionpercentage(%)=F1‐F2/F1×100, where F 1 is the fluorescence intensity of DMSO and F 2 represents the fluorescence intensity of each flavonoid.
# site I of HSA = site I of HSA (Homo sapiens, UniProt P02768); test: Fluorescence competitive binding assay with site‐selective probe DNSA; settings: for Inhibition ratio, site I / Competitive inhibition rate of the probe binding, Site I: DNSA probe; for Competitive inhibition rate of the probe binding, Site I: 100 µM, n = 3, mean ± SE; for inhibition at 100 µM: human, defatted human serum albumin (HSA) in phosphate buffer, pH 7.4, probe dansylamide (DNSA)
# site I of HSA, sequence (P02768 25-609): as above
# Protocol: as §1
# [1] = parameters: method as in Rad et al., 2006; settings: postmenopausal women, mostly conjugated metabolites, ref Rad et al., 2006; cited from earlier work
# [2] = Tissue distribution after 22 days of 8‐PN or naringenin mixed diet; format: in vivo, C57/BL6 mice; settings: for Percentage of aglycone in the liver: aglycone to total; for 8‐PN aglycone in the liver: without deconjugation
# Source text: We planned the nutritional composition and feeding period according to previous similar research (Andres-Lacueva et al., [2012]; Bieger et al., [2008]; Boer et al., [2005]; Mukai et al., [2013]; Takumi et al., [2011]). […] Though this dose concentration may not be achieved through regular diet or supplementation, this concentration was used in accordance with previous studies that evaluated the tissue distribution of flavonoids (0.2% [w/w]) (Mukai et al., [2013]; Takumi et al., [2011]). The mice were fed each diet via normal oral feeding for 22 days. In the pharmacokinetic study (Section 2.5), we administered each nutrient to mice at a dose of 50 mg/kg body weight (BW) via oral gavage after 18 h of starvation. Although this dose concentration may not reflect regular diet or supplementation, this or higher concentrations have been applied for pharmacokinetic study of flavonoids (Bai et al., [2020]; Hung et al., [2018]; Mukai et al., [2013]). All experimental protocols were approved by the Committee on Animal Experiments of Tokushima University (approval number: 11013). All efforts were made to minimize animal suffering. Seven-week-old male C57/BL6 mice (Japan SLC) were housed in a room maintained at 23 ± 1°C under a 12-h/12-h light/dark cycle. Diets consisted of 8-PN or naringenin (0.56 mmol/kg diet) mixed with AIN-93M (AIN-93M; Oriental Yeast Company), with the cellulose contents reduced to adjust the composition of other nutrients. The mice (n = 7 or 8) were fed these diets via normal oral feeding for 22 days and allowed free access to water. The liver, kidneys, quadricep muscles, pancreas, lungs, brain, spleen, and heart were collected from the mice under anesthesia and weighed. Before freezing, the liver tissues were flushed with ice-cold phosphate-buffered saline (PBS, pH 7.4) to avoid blood contamination. All samples were stored at -80°C under N2 gas until extraction of flavonoid. Sample preparation was performed according to a previous report (Mukai et al., [2013]). Each tissue was homogenized in PBS on ice (nine times the volume of the tissue wet weight) using a Teflon homogenizer (As One). […] The hydrolysates were then subjected to extraction three times with equal volumes of ethyl acetate and evaporated using a centrifugal evaporator (CVE-100; Tokyo Rikakikai). The extracts were dissolved in 50 μl of methanol containing 0.5% phosphoric acid. Then, 20 μl from each sample was injected into the HPLC-UV system. […] Shimadzu) with a Cadenza CD-C18 HPLC column (3 μm, 4.6 × 150 mm; […]). […] 8-PN and naringenin amounts were determined using an internal standard method. […] Since a clear peak was actually detected for 8-PN over 2 pmol (0.1 μM), and for naringenin over 4 pmol (0.2 μM) based on visual evaluation, we determined these concentrations were the LODs for each flavonoid.
SMILES,"Competitive inhibition rate of the probe binding, Site II (site II of HSA)","Inhibition ratio, site I (site I of HSA; 1 µM)","Inhibition ratio, site I (site I of HSA; 50 µM)","Competitive inhibition rate of the probe binding, Site I (site I of HSA)",inhibition at 100 µM (site II of HSA),inhibition at 100 µM (site I of HSA),further results
"CC(C)=CCc1c(O[C@@H]2O[C@H](C(=O)O)[C@@H](O)[C@H](O)[C@H]2O)cc(O)c2c1OC(c1ccc(O)cc1)CC2=O (stereo partly shown) [8‐PN‐7G, 8‐PN 7‐glucuronide]",n.d. ^a (The result without competitive inhibition (≤0) with the fluorescent probe is shown as not determined (n.d.)),12.8%,37.9%,37.2 ± 0.6 %,,,Binding constant to HSA (site I of HSA; from competition profile for site I (Figure 3)): 24200 M
"O=C1C[C@@H](c2ccc(O[C@@H]3O[C@H](C(=O)O)[C@@H](O)[C@H](O)[C@H]3O)cc2)Oc2cc(O)cc(O)c21 [N4′G, Naringenin 4′‐glucuronide, reference compound]",2.4 ± 2.4%,,,5.2 ± 2.8%,,,
"O=C1C[C@@H](c2ccc(O)cc2)Oc2cc(O[C@@H]3O[C@H](C(=O)O)[C@@H](O)[C@H](O)[C@H]3O)cc(O)c21 [N7G, naringenin 7‐glucuronide, reference compound]",9.6 ± 4.8%,,,10.0 ± 3.0%,,,
"CC(C)=CCc1c(O)cc(O)c2c1O[C@H](c1ccc(O)cc1)CC2=O [8‐PN, 8‐Prenylnaringenin]",,10.3%,36.7%,,28.3 ± 2.8%,61.1 ± 0.6%,"Time of absorption into the bloodstream after oral administration [1]: 1 to 1.5 h; Percentage of aglycone in the liver ([2]; average of 7 mice): 11.7%; 8‐PN aglycone in the liver ([2]; average of 7 mice): 1.58 nmol/g wet tissue; Percentage of aglycone in the liver ([2]; individual mice #1-7): 15.9% and 20.9% and 9.5% and 6.3% and 7.8% and 5.7% and 15.7%; 8‐PN aglycone in the liver ([2]; individual mice #1-7, 22 days diet): 0.62 nmol/g wet tissue and 3.23 nmol/g wet tissue and 1.62 nmol/g wet tissue and 1.50 nmol/g wet tissue and 0.66 nmol/g wet tissue and 1.18 nmol/g wet tissue and 2.24 nmol/g wet tissue"
"CC(C)=CCc1c(O)cc(O)c2c1OC(c1ccc(O[C@@H]3O[C@H](C(=O)O)[C@@H](O)[C@H](O)[C@H]3O)cc1)CC2=O (stereo partly shown) [8‐PN‐4′G, 8‐PN 4′‐glucuronide]",n.d. ^a (The result without competitive inhibition (≤0) with the fluorescent probe is shown as not determined (n.d.)),,,n.d. ^a (The result without competitive inhibition (≤0) with the fluorescent probe is shown as not determined (n.d.)),,,
O=C1C[C@@H](c2ccc(O)cc2)Oc2cc(O)cc(O)c21 [Naringenin],,,,,8.3 ± 3.9%,25.3 ± 0.4%,
